Target: Chitinase (Trichoderma)
Assay: Compound was evaluated for inhibitory activity against Trichoderma Chitinase

IC50 [nM]	Compound
41	CC(=O)NC(/C=N/NC(=O)CCCCCNC(=O)CCCCC1SC[C@H]2NC(=O)N[C@@H]12)C(OC(CO)CO)OC1C(CO)OC(OC2C(O)C3N=C(N(C)C)OC3C2CO)C(NC(C)=O)C1O (some centres undefined)
80	CC(=O)NC(CO)C(OC(CO)CO)OC1C(CO)OC(OC2C(O)C3N=C(N(C)C)OC3C2CO)C(NC(C)=O)C1O (centres undefined)
41.1	CC(=O)NC(/C=N/NC(=O)CCCCCNC(=O)CCCCC1SC[C@H]2NC(=O)N[C@@H]12)C(OC(C=O)CO)OC1C(CO)OC(OC2C(O)C3N=C(N(C)C)OC3C2CO)C(NC(C)=O)C1O (some centres undefined)
7.53	CC(=O)NC(/C=N/NC(=O)CCCCCNC(=O)CCCCC1SC[C@@H]2NC(=O)N[C@H]12)C(OC(/C=N/NC(=O)CCCCCNC(=O)CCCCC1SC[C@@H]2NC(=O)N[C@H]12)CO)OC1C(CO)OC(OC2C(O)C3N=C(N(C)C)OC3C2CO)C(NC(C)=O)C1O (some centres undefined)

Source: BindingDB's records for doi:10.1016/s0960-894x(98)00542-3 (University of Tokyo, 1998)
